# Results: a melting point compilation (Tetko et al.; mined from patent text by program, amines drawn as free bases though some values may be those of a salt)
row,SMILES,melting point [°C]
1,c1ccc(-c2ccc(-c3csc(Nc4cc5ccccc5cn4)n3)s2)nc1,246 to 248
2,COCc1c(C=C(Br)Br)ncc2c1c1c(OCc3ccccc3)cccc1n2S(=O)(=O)c1ccc(C)cc1,149 to 152
3,CCCCNC(=O)N1N=C(c2ccc(N)cc2)c2cc(Cl)ccc2CC1C (stereo not given),89 to 91
4,C=Cc1cccc2[nH]cc(S(=O)(=O)c3ccccc3)c12,125 to 128
5,CC1(C)CC(OC(=O)NN)CC(C)(C)N1,93 to 94
6,C[Si](C)(C)C#Cc1cccc2c1C1(c3ccccc3-c3ccccc31)c1ccccc1-2,205 to 206
7,CS(=O)(=O)c1ccc(C(=O)O)c(Cl)c1C1=NOCC1,145 to 146
8,O[C@H]1COC(c2ccccc2)=N[C@@H]1c1ccccc1 (racemic),150
9,Cc1ccc2c(c1)CC(=O)N2c1c(F)cc(F)c(F)c1F,172 to 173
10,CCOc1ccc(-c2nc(C(O)c3ccc(OC)c(OC)c3)cs2)cc1OCC (stereo not given),122 to 123
11,Nc1ncn(C[C@H](O)COC(c2ccccc2)(c2ccccc2)c2ccccc2)c(=O)n1,130 to 132
12,Clc1ccc(-c2onc3c(CBr)cccc23)c(Cl)c1,108 to 110
13,COc1ncnc(-c2cc(NS(C)(=O)=O)c(Cl)cc2Cl)c1C#N,160 to 162
14,Cn1c(Cc2ccc(Cl)c(Oc3cc(C#N)cc(C#N)c3)c2F)nn(COC(=O)CCC(=O)O)c1=O,142 to 143
15,COC(=O)c1ccc(CC(C)N(CC(=O)c2ccc(OCc3ccccc3)c(NC(N)=O)c2)Cc2ccccc2)cc1 (stereo not given),140 to 145
16,CS(=O)(=O)CCCCC(C1CCCCC1)S(=O)(=O)c1ccc(Cl)cc1 (stereo not given),104 to 106
17,N#Cc1[nH]c2ccc(Cl)cc2c1-c1c(F)cccc1F,199 to 200
18,Cn1cncc1COc1nn2c(-c3ccccc3)nnc2cc1-c1ccccc1,195 to 196
19,Cc1cc(C)cc(C(=O)N(C)[C@H](Cc2ccccc2)C(=O)N[C@@H](Cc2c[nH]c3ccccc23)C(=O)O)c1,91 to 94
20,N#Cc1ccccc1NCc1nc2ccc(F)cc2c(=O)n1-c1cccnc1Cl,183 to 187
21,CC(C)(C=NO)C1CCN(CC#Cc2cc(C(F)(F)F)cc(C(F)(F)F)c2)CC1,63 to 65
22,Cc1ccc(S(=O)(=O)OCC2Cc3cc(Cl)c4c(c3O2)CCC4)cc1 (stereo not given),82 to 84
23,CCCCc1nn(-c2cc(NC(=O)CC)ccc2Cl)c(=O)n1Cc1ccc(-c2cc(CC)ccc2S(=O)(=O)NC(=O)c2ccccc2Cl)cc1,144 to 146

row,SMILES,melting point [°C]
1,Cc1csc(C(=O)OC(C)C)c1N,40
2,CC1OC(=O)c2c(O)cccc21 (stereo not given),107 to 108
3,CC(C)c1ccc(N(Cc2ccc(N(C)C)cc2)C(=O)C2CCOc3c(C#N)cccc32)cc1 (stereo not given),179
4,CCc1nc2c(Cl)ncnc2n1Cc1ccc(OC)cc1,101 to 103
5,CCN1C(=O)C(C)(C)C(=O)N(C)c2cc(OCCCN(CCc3cccnc3)C(=O)c3ccncc3)ccc21,88.1 to 92.2
6,Cn1ccnc1Sc1ccc(Nc2c(C#N)cnc3cc(F)ccc23)cc1Cl,268 to 272
7,CCCC1=NC(=NOC(=O)NC)SC1(C)CC (stereo not given),124 to 126
8,CSc1nnsc1-c1cccs1,49 to 49.5
9,CN(C)c1cncc(C(=NCCc2ccccc2Cl)NC#N)c1,158
10,COc1ccc(S(=O)(=O)C2SC(=O)NC2=O)cc1 (stereo not given),93 to 95
11,CC1(C)CC(=O)Oc2ccc(O)cc21,95 to 96
12,CS(=O)(=O)c1ccccc1S(N)(=O)=O,249 to 250
13,COc1cccc2c1CC(C(=O)O)N2S(=O)(=O)c1ccc(-c2ccc(F)cc2Cl)cc1 (stereo not given),137 to 138
14,COc1cccc(-c2cn(-c3ccccc3)c3ncnc(N)c23)c1,159 to 160
15,CN(C)C=Nc1[nH]nc(N2CCOCC2)c1C#N,182 to 183
16,CC(=O)N[C@@H](Cc1cscn1)C(=O)O,186
17,O=C(c1ccc(O)cc1)c1c(-c2ccccc2)sc2ccccc12,163 to 165
18,CNc1ccc(-c2[nH]cnc2-c2cc(OC)cc(OC)c2)cc1F,182 to 184
19,CC(C)(C)c1ccc(C(CCCN2CCC(=NO)CC2)OC2CCCCO2)cc1 (stereo not given),150 to 151
20,CC(Oc1cccc(Oc2c(Cl)cc(C(F)(F)F)cc2Cl)c1)C(=O)O (stereo not given),120
21,COC(=O)c1cc(OC)c(N(C)C)c(OC)c1,71 to 72
22,CCCCCCCCCCOc1ccc([N+](=O)[O-])cc1OCCCCCCCCCC,60 to 61

# Results, then the compound that gave them:
row,melting point [°C],SMILES
1,117,Cc1ccccc1CCC(C)(C)NC(=O)n1nc(N(C)C)n(N)c1=O
2,86 to 87,COC(=O)c1cccc(COC(OC(C)=O)C(=O)c2ccccc2)c1 (stereo not given)
3,95 to 98,CC(=O)OCCc1cccc2c(-c3ccccc3)c([N+](=O)[O-])oc12
4,112 to 113,C[C@@H](COc1ccc(N2CCN(c3ccncc3)CC2)cc1)CC(=O)OC(C)(C)C
5,121 to 122,COC(=O)C(=C/c1ccccc1)/C(=C\c1cc(OC)c(OC)c(OC)c1)C(N)=O
6,195 to 197,O=C(N[C@@H](Cc1ccccc1)C(=O)N[C@@H](Cc1cncn1COCc1ccccc1)C(=O)O)C1CCCC1
7,103 to 104,O=C(NCc1ccccc1)[C@@H]1CCCCN1
8,203 to 204,O=C(CNc1ccc(F)cc1)N1CCN2C(=O)OC(c3ccccc3)(c3ccccc3)C2C1 (stereo not given)
9,47 to 48,CCOC(=O)CC1CCN(C(=O)c2ccccc2)CC1
10,165 to 166,N#Cc1cccc(N(C(=O)NC2CCN(Cc3ccccc3)CC2)C2CCCC2)c1
11,153 to 156,CSCC[C@H](N)C(=O)NC(=O)C(CS)Cc1ccccc1 (stereo not given in full)
12,144 to 145,CC(Oc1ncn(-c2ccc(Br)cc2)n1)C(=O)N1CCCC1 (stereo not given)
13,184 to 185,COc1cc(C(=O)N2Cc3cccn3Cc3ccccc32)ccc1N
14,184 to 185,Cc1c(-c2ccncn2)nc2n(c1=O)CCCN2CC(=O)c1ccccc1
15,174,COC(=O)c1cc(C(=O)c2c(C)c(OC)c3c(OCc4ccccc4)cccn23)ccc1N
16,132 to 133,Cc1ccc(S(=O)(=O)N=NCNC[C@@H]2C[C@H](C(=O)O)N(C(=O)OC(C)(C)C)C2)cc1
17,120 to 121,CC[C@@H](c1ccccc1)N(Cc1ccc(C(=O)N2CCC[C@@H]2CO)cc1)S(=O)(=O)c1ccc(Cl)cc1
18,164,CC(C)(C)OC(=O)[C@@H]1CS[C@H](c2ccccc2)N1C(=O)CNC(=O)Nc1cccc(CCO)c1
19,134 to 136,O=C(O)C(O)N1C(=O)CCN1c1cccc(Cl)c1 (stereo not given)
20,228 to 230,CC12CCC(=O)C=C1CCC1C3CC(OCC(=O)c4ccccc4)C(O)(C(=O)CO)C3(C)CC(O)C12F (stereo not given)
21,162,Nc1ncnc2c1c(-c1ccc(Oc3ccccc3)cc1)c(Br)n2C1CCCC1
22,86 to 87,CCOC(=O)C(OC)c1nn(-c2ccc(Cl)cc2)c2c1CCCC2 (stereo not given)
23,112 to 115,NS(=O)c1ccccc1 (stereo not given)
24,173 to 175,CCN1C=C(C(=O)O)C(=O)CC1c1ccc2c(c1)OCO2 (stereo not given)
25,69.6 to 70.1,CN(Cc1ccc(COC(=O)NC(Cc2ccccc2)C(=O)O)cc1)c1ccccc1 (stereo not given)
